# Earlier results in PMC11053489 (Viruses, 2024).
# Test system: SARS-CoV-2 with mutations in the RNA-dependent RNA polymerase gene
# Details: cited from earlier work
structure (smiles),measurement,value
CCC(CC)COC(=O)[C@H](C)N[P@](=O)(OC[C@H]1O[C@@](C#N)(c2ccc3c(N)ncnn23)[C@H](O)[C@@H]1O)Oc1ccccc1 [Remdesivir],increase in EC50 of resistant lineages,2.5 to 10 fold
